Source: patent publication US20140107316A1, “DRUG DELIVERY CONJUGATES CONTAINING UNNATURAL AMINO ACIDS AND METHODS FOR USING” (priority 2012, published 2014)
“Also recorded” adds a separate entry of the source. Marks after values point to notes of the source that are not given here.

How the values were obtained:
[1] = Maximum tolerated dose (MTD); type: in vivo, female Sprague-Dawley rats
Text: Maximum tolerated dose (MTD). […] For Example, EC1456 has a MTD of at least 0.51 μmol/kg and EC0531 has a MTD of 0.33 μmol/kg, […] when administered by i.v., BIW, 2 wks in female Sprague-Dawley rats. Histopathologic changes were not observed with doses of EC1456 at or below the MTD.

[2] = tested on: HepG2; experiment: In vitro test against cancer cell lines, HepG2; type: cell-based, Human; conditions: HepG2, FR status −; evaluated from 0.1-100 nM
Method: (§1) In vitro test against the various cancer cell lines. Cells are heavily seeded in 24-well Falcon plates and allowed to form nearly confluent monolayers overnight. Thirty minutes prior to the addition of the test compound, spent medium is aspirated from all wells and replaced with fresh folate-deficient RPMI medium (FFRPMI). A subset of wells are designated to receive media containing 100 μM folic acid. The cells in the designated wells are used to determine the targeting specificity. […] Following one rinse with 1 mL of fresh FFRPMI containing 10% heat-inactivated fetal calf serum, each well receives 1 mL of medium containing increasing concentrations of test compound (4 wells per sample) in the presence or absence of 100 μM free folic acid as indicated. Treated cells are pulsed for 2 h at 37° C., rinsed 4 times with 0.5 mL of media, and then chased in 1 mL of fresh medium up to 70 h. Spent medium is aspirated from all wells and replaced with fresh medium containing 5 μCi/mL ^3H-thymidine. […] A 450 μL aliquot of each solubilized sample is transferred to a scintillation vial containing 3 mL of Ecolume scintillation cocktail and then counted in a liquid scintillation counter. Final tabulated results are expressed as the percentage of ^3H-thymidine incorporation relative to untreated controls.
(§2) Folate receptor expressing cells. […] EC1456 was evaluated from 0.1-100 nM.

[3] = tested on: KB tumors; experiment: KB tumor assay in nu/nu mice; conditions: for CR (%) / Cures (%) / PR (%) / Toxicity Deaths (%) / Toxicity Avg. Weight Loss: TIW
Method: Inhibition of Tumor Growth in Mice. Four to seven week-old mice (Balb/c or nu/nu strains) were purchased from Harlan Sprague Dawley, Inc. (Indianapolis, Ind.). Normal rodent chow contains a high concentration of folic acid (6 mg/kg chow); accordingly, mice used were maintained on the folate-free diet (Harlan diet #TD00434) for 1 week before tumor implantation to achieve serum folate concentrations close to the range of normal human serum. For tumor cell inoculation, 1×10^6 M109 cells (Balb/c strain) or 1×10^6 KB cells (nu/nu strain) in 100 μL were injected in the subcutis of the dorsal medial area. Tumors were measured in two perpendicular directions every 2-3 days using a caliper, and their volumes were calculated as 0.5×L×W^2, where L=measurement of longest axis in mm and W=measurement of axis perpendicular to L in mm. […] Dosing solutions were prepared fresh each day in PBS and administered through the lateral tail vein of the mice.
General KB Tumor Assay. The anti-tumor activity of the compounds described herein, when administered intravenously (i.v.) to tumor-bearing animals, was evaluated in nu/nu mice bearing subcutaneous KB tumors. Approximately 8 days post tumor inoculation in the subcutis of the right axilla with 1×10^6 KB cells (average tumor volume at to=50-100 mm^3), in mice (5/group) were injected i.v. three times a week (TIW), for 3 weeks with […] of the drug delivery conjugate or with an equivalent dose volume of PBS (control), unless otherwise indicated. Tumor growth was measured using calipers at 2-day or 3-day intervals in each treatment group. Tumor volumes were calculated using the equation V=a×b^2/2, where “a” is the length of the tumor and “b” is the width expressed in millimeters.
Toxicity as Measured by Weight Loss. The percentage weight change of the mice was determined in mice (5 mice/group) on selected days post-tumor inoculation (PTI), and graphed.
In vivo activity against tumors.

[4] = tested on: MDA-MB-231; experiment: In vitro test against cancer cell lines, MDA-MB-231; type: cell-based, Human
Method: as §1, §2

[5] = tested on: AN3CA; experiment: In vitro test against cancer cell lines, AN3CA; type: cell-based, Human; conditions: FR status −, evaluated from 0.1-100 nM
Method: as §1, §2

[6] = molecular target: T1, folate receptors (FRs) (Homo sapiens, UniProt P15328); experiment: Relative affinity assay (3H-folic acid displacement on KB cells); type: binding; conditions: compared to folic acid (relative affinity=1), 10% serum/FDRPMI
T1 construct: FR-positive KB cells were heavily seeded into 24-well cell culture plates; endogenous in cells; host or cells: KB cells (human cervical carcinoma)
Method: Relative Affinity Assay. The affinity for folate receptors (FRs) relative to folate was determined according to a previously described method (Westerhof, G. R., J. H. Schornagel, et al. (1995) Mol. Pharm. 48: 459-471) with slight modification. Briefly, FR-positive KB cells were heavily seeded into 24-well cell culture plates and allowed to adhere to the plastic for 18 h. Spent incubation media was replaced in designated wells with folate-free RPMI (FFRPMI) supplemented with 100 nM ^3H-folic acid in the absence and presence of increasing concentrations of test article or folic acid. Cells were incubated for 60 min at 37° C. and then rinsed 3 times with PBS, pH 7.4. Five hundred microliters of 1% SDS in PBS, pH 7.4, were added per well. Cell lysates were then collected and added to individual vials containing 5 mL of scintillation cocktail, and then counted for radioactivity. Negative control tubes contained only the ^3H-folic acid in FFRPMI (no competitor). Positive control tubes contained a final concentration of 1 mM folic acid, and CPMs measured in these samples (representing non-specific binding of label) were subtracted from all samples.

[7] = tested on: NCI/ADR-RES-Cl2; experiment: In vitro test against cancer cell lines, NCI/ADR-RES-Cl2; type: cell-based, Human
Method: as §1, §2

T1 sequence (P15328 25-234): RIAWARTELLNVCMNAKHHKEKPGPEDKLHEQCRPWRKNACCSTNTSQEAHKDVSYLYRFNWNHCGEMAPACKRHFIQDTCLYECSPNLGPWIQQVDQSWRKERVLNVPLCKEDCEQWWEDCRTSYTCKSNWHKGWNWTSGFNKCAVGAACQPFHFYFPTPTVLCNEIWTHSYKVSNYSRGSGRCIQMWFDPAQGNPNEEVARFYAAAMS

Structure (SMILES): CCCC(=O)OCN(C(=O)[C@@H](NC(=O)[C@H]1CCCCN1C)[C@@H](C)CC)[C@H](C[C@@H](OC(C)=O)c1nc(C(=O)N[C@@H](Cc2ccc(O)cc2)C[C@H](C)C(=O)NNC(=O)OCCSSC[C@@H](NC(=O)[C@H](CCC(=O)NC[C@H](O)[C@@H](O)[C@H](O)[C@H](O)CO)NC(=O)[C@@H](CCC(=O)O)NC(=O)[C@H](CCC(=O)NC[C@H](O)[C@@H](O)[C@H](O)[C@H](O)CO)NC(=O)[C@@H](CCC(=O)O)NC(=O)[C@H](CCC(=O)NC[C@H](O)[C@@H](O)[C@H](O)[C@H](O)CO)NC(=O)CC[C@@H](NC(=O)c2ccc(NCc3cnc4nc(N)[nH]c(=O)c4n3)cc2)C(=O)O)C(=O)O)cs1)C(C)C [EC1456]
- Histopathologic changes ([1]; doses at or below the MTD): not observed
- improvement in MTD over EC0531 ([1]; i.v., BIW, 2 wks): 65%
- MTD ([1]; rat, in vivo, iv, BIW, 2 wks): ≥ 0.51 µmol/kg
- EC1456 Activity (IC50) [2]: Inactive
- In vivo activity [3]: Complete
- CR (%) ([3]; 0.5 μmol/kg, 3 weeks): 0%
- Cures (%) ([3]; 0.5 μmol/kg, 3 weeks): 0%
- PR (%) ([3]; 0.5 μmol/kg, 3 weeks): 60%
- Toxicity Deaths (%) ([3]; 0.5 μmol/kg, 3 weeks): 0%
- Toxicity Avg. Weight Loss ([3]; 0.5 μmol/kg, 3 weeks, untreated control group 2.4%): <5%*
- CR (%) ([3]; 0.67 μmol/kg, 2 weeks): 20%
- Cures (%) ([3]; 0.67 μmol/kg, 2 weeks): 0%
- PR (%) ([3]; 0.67 μmol/kg, 2 weeks): 60%
- Toxicity Avg. Weight Loss ([3]; 0.67 μmol/kg, 2 weeks): <2%
- Toxicity Deaths (%) ([3]; 0.67 μmol/kg, 2 weeks): 0%
- specific activity mediated by the folate receptor ([3]; 1 μmol/kg TIW co-dosed with excess EC0923 (50 or 100 μmol/kg)): competable with excess EC0923
- whole animal toxicity (animal body weight) ([3]; 1 μmol/kg TIW, 2 wk): did not result in any observable gross toxicity; also recorded: does not show any evidence of whole animal toxicity
- CR (%) ([3]; 1.0 μmol/kg, 2 weeks): 0%
- Cures (%) ([3]; 1.0 μmol/kg, 2 weeks): 60%
- PR (%) ([3]; 1.0 μmol/kg, 2 weeks): 40%
- Toxicity Avg. Weight Loss ([3]; 1.0 μmol/kg, 2 weeks): <1.5%
- Toxicity Deaths (%) ([3]; 1.0 μmol/kg, 2 weeks): 0%
- CR (%) ([3]; 2.0 μmol/kg, 2 weeks): 0%
- Cures (%) ([3]; 2.0 μmol/kg, 2 weeks): 100%
- PR (%) ([3]; 2.0 μmol/kg, 2 weeks): 0%
- Toxicity Avg. Weight Loss ([3]; 2.0 μmol/kg, 2 weeks): <3%
- Toxicity Deaths (%) ([3]; 2.0 μmol/kg, 2 weeks): 0%
- complete response (test animals) ([3]; intravenously 1 μmol/kg TIW, 2 wk): 4/4
- toxicity in relation to anti-tumor effect in mice ([3]; mouse, in vivo): anti-tumor responses without significant toxicity
- Competable up to 100 nM ([4]; MDA-MB-231): Yes
- IC50 ([4]; MDA-MB-231, FR status +, evaluated from 0.1-100 nM, read-out: EC1456 Activity (IC50)): 470 pM
- EC1456 Activity (IC50) [5]: Inactive
- Relative Affinity [6]: 0.27
- Competable up to 100 nM ([7]; NCI/ADR-RES-Cl2): Yes
- IC50 ([7]; NCI/ADR-RES-Cl2, FR status ++, evaluated from 0.1-100 nM, read-out: EC1456 Activity (IC50)): 1400 pM
